The values that follow come from patent publication US20240148672A1, “ORAL THIN FILM” (LTS LOHMANN THERAPIE-SYSTEME AG, priority 2021, published 2024).

Series [1] can be described thus: pH value of oral thin film dissolved in demineralised water. It counts as physicochemical. The settings on record: Measured as dissolved OTF in demineralised water temperature-controlled to 32° C. (blank value pH 7.12). As to the method:
Oral thin films of the composition according to Table 1 were prepared as follows. The active ingredient or the active ingredient mixture was presented and an aqueous solution of the matrix polymer was added. The remaining ingredients were then stirred in. The solution was spread and dried in order to obtain an oral thin film.

The conditions of series [2]: (S)-ketamine versus (R) form; cited from earlier work.

Structures are written as SMILES. Structures can show the parent of a compound that is named as a salt.

Regarding `CNC1(c2ccccc2Cl)CCCCC1=O` (centres unmarked) [ketamine hydrochloride], the pH-value in series [1] is on record as 5.32.

With `CNC1(c2ccccc2Cl)CCCCC1=O` (racemic) [(S)-ketamine, (S)-(±)-2-(2-chlorophenyl)-2-(methylamino)cyclohexan-1-one], the “analgesic and anaesthetic potency relative to the (R) form” value in series [2] is “approximately three times higher”.
